One series relates to L1210 murine leukemia. The note with it: cited from earlier work.
The next series deals with P388 murine leukemia. To be noted: cited from earlier work.
For the next series, the system named is KB cells. Kind of series: Cytotoxic activity in vitro, KB cells. It is filed as cell-based. The note with it: for IC50: Homo sapiens, KB cells, average of at least three experiments, read-out: ED50 KB. On the procedure: (§1) It appears that structural variations such as replacement of sulfur for oxygen or selenium as well as changes in the electronic nature of the substituents are critical factors in eliciting the inhibitory activity. Since in general satisfactory cytotoxic activity "in vitro" corresponds to good antitumor activity in vivo, the antitumor activity of compound Ib was assessed in mice bearing Ehrlich ascites tumor. A range of doses from 400 mg/kg to 90 mg/kg were tested, each given in a one dose basis, 24 h after tumor implantation. […] Compound Ib was also tested against P388 leukemia in mice.
(§2) HeLa-229 and KB cells were used for in vitro tissue culture cytotoxicity experiments. Cells were grown in monolayer culture in Difco TC Minimal Medium Eagle and supplemented with 10% foetal calf serum (Flow). Subculturing was performed every 6-7 days. Ehrlich ascites tumor was maintained in serial passages at two week intervals in Albino Swiss mice by intraperitoneal implant.
(§3) The method was essentially as described in Cancer Chemotherapy Rep. Part 3, 3, 2 (1972); NCl Monograph 45, p. 150. Drugs were always suspended in sterile 0.5% carboxymethyl cellulose. As a positive control 1 μM 6-mercaptopurine was always included.

A further series has as its system HeLa cells. Kind of series: Cytotoxic activity in vitro, HeLa cells. It is filed as cell-based. On the procedure:
as §1, §2, §3

Another series has as its system Ehrlich ascites tumor. Kind of series: Antitumor activity against Ehrlich ascites tumor in mice. To be noted: for death of mice: one dose; for T/C: Day 12. It is filed as in vivo, female Albino Swiss mice. On the procedure:
as §1, §2
(§4) The mice used through these experiments were female Albino Swiss mice.
(§5) Each group consisted of five to six weight matched animals. To begin the antitumor experiment 1×10^6 viable cells (trypan blue exclusion test) were injected ip. Test compounds were suspended in 0.9% (w/v) NaCl solution containing 0.10% (v/v) Tween 80 at the higher concentration. Lower doses were obtained by serial dilutions with 0.9% NaCl and injected ip in a volume of 0.5 ml in a single dose 24 h after implantation of the tumor. Animal body weights were recorded daily during the next 30 days and the survival was followed for the next 60 days. The P388 leukemia assay was performed according to standard protocol, Cancer Chemotherapy Rep.; Part 3, 3, 2 (1972); NCl Monograph 45, p. 150.
(§6) ^a Average of three tests except when noted.
(§7) ^b and ^c Assay performed according to procols of NCl.
(§8) ^d Treatment given ip on Day 1.
^f Toxicity = LTS number of toxic deaths/number of treated mice.
^g LTS = long term survivors (60 days)/number of treated mice.

The next series deals with P388 leukemia. Kind of series: Antitumor activity against P388 leukemia in mice. It is filed as in vivo. On the procedure:
as §1, §4, §5, §6, §7
5Fluorouracil was used as control (200 mg/kg/ing).
as §8
^h Median survival time of treated mice/median survival of control
× 100. Values of T/C 120 denote activity.

For series [1], the system named is Herpes simplex virus (HSV-1) infected KB cells. Kind of series: Protein synthesis in HSV-1 infected and mock-infected KB cells. The note with it: for inhibition of translation (protein synthesis): infected vs mock-infected KB cells. It is filed as cell-based. On the procedure: In addition, herpes simplex virus (HSV-1) infected KB cells and KB mock-infected cells were assayed for protein synthesis in the presence of Ib at different concentrations.
Screening of antibiotic action on protein synthesis in virus infected cells.
Herpes simplex virus (HSV-1) infected KB cells and KB mock-infected cells were assayed for protein synthesis in the presence of nitrobenzothiazolo quinolium perchlorate at different concentrations. After infection or mock-infection nitrobenzothiazolo quinolium perchlorate was added at the concentration of 100, 50, 25, 5 and 1.5 μg/ml and incubated for 48 hours.
After the incubation time, protein synthesis was measured by addition of 0.1 μCi^35 S methionine ([…]; 5.4 mCl/ml) and incubated for 1 hour. After incubation the medium was removed, the reaction stopped and the radioactivity estimated in an Intertechnique liquid scintillation spectrometer.
The value 100% of control represents 72,484 cpm (mock-infected KB cells).

Another series has as its system DNA synthesis. The note with it: probably by interacting with A:T base pairs; cited from earlier work.
The mark [2] stands for this setting: Ehrlich ascites, 90 mg/kg ip on Day 1, two test results.
Setting [3] is: Ehrlich ascites, 100 mg/kg ip on Day 1, two test results.
Where [4] appears, read: Ehrlich ascites, 150 mg/kg ip on Day 1.
Setting [5] is: Ehrlich ascites, 200 mg/kg ip on Day 1.
Setting [6] is: Ehrlich ascites, 250 mg/kg ip on Day 1.
[7] abbreviates: Ehrlich ascites, 400 mg/kg ip on Day 1.

Like-named read-outs stand apart in the source and are kept apart here.

As for `COc1cc2cc3c4cc(OC)c(OC)cc4cc[n+]3c(C)c2cc1OC` [Coralyne], the antitumor activity entry in the series on L1210 murine leukemia and in the series with P388 murine leukemia was “exhibits antitumor activity” each time.

`O=[N+]([O-])c1ccc2c(ccc3sc4ccccc4[n+]32)c1.[O-][Cl+3]([O-])([O-])[O-]` [Ib, 3-Nitrobenzothiazolo(3,2-a)quinolinium Perchlorate]: the IC50 in the series on KB cells came to 0.61 µg/mL; with HeLa cells (Homo sapiens, HeLa cells, average of at least three experiments, read-out: ED50 HeLa) it was 0.9 µg/mL. Besides, the “cytotoxicity, ranking among compounds I” value in the series on KB cells (KB screen) and with HeLa cells (HeLa screen) was “highest cytotoxicity” throughout. The “death of mice” value in the series with Ehrlich ascites tumor (300 mg/kg) and in the series on Ehrlich ascites tumor (400 mg/kg) was “died within 24 h of injection” throughout. Also, the T/C in the series with Ehrlich ascites tumor (setting [2]) is reported as 57.3%; in the series on Ehrlich ascites tumor (setting [3]), 35.8%; in the series on Ehrlich ascites tumor (setting [4]), -0.4%; with Ehrlich ascites tumor (setting [5]), -6.9%; with Ehrlich ascites tumor (setting [6]) it was -2.5%. The “LTS, long term survivors (60 days)/number of treated mice” value with Ehrlich ascites tumor (setting [2]) is reported as 5/10; in the series with Ehrlich ascites tumor (setting [3]), 12/12; with Ehrlich ascites tumor (setting [4]), 15/18; in the series on Ehrlich ascites tumor (setting [5]), 18/18; in the series on Ehrlich ascites tumor (setting [6]), 15/18. For the same compound, the Survival with Ehrlich ascites tumor (setting [2]) is on record as 3/5; in the series on Ehrlich ascites tumor (setting [3]) it was 6/6; in the series with Ehrlich ascites tumor (setting [4]) it was 6/6; in the series with Ehrlich ascites tumor (setting [5]), 6/6; in the series on Ehrlich ascites tumor (setting [6]), 6/6; in the series on Ehrlich ascites tumor (setting [7]), 0/6. For the same compound, the Survival with P388 leukemia (200 mg/kg ip on Day 1) was 6/6; in the series with P388 leukemia (400 mg/kg ip on Day 1), 0/6. For the same compound, the “Toxicity (toxic deaths/number of treated mice)” value in the series on Ehrlich ascites tumor (setting [7]) is on record as 6/6. The T/C value with Ehrlich ascites tumor (Ehrlich ascites, most effective dose 200 mg/kg, one dose 24 h after tumor implantation) is given as -6.2. In the series with P388 leukemia (200 mg/kg ip on Day 1, values of T/C 120 denote activity), the “T/C (median survival time of treated mice/median survival of control × 100)” value stood at 218. Further, the Toxicity in the series on P388 leukemia (400 mg/kg ip on Day 1) is recorded as 6/6. The virus yield entry is “drastic reduction on virus yield” in series [1] and “drastic reduction on virus yield” in series [1] (5×10^-4 M, 48 hours). The “inhibition of translation (protein synthesis)” value in series [1] (5×10^-4 M, 48 hours) is “inhibited preferentially translation on infected cells”; in series [1], “inhibited preferentially translation on infected cells”.

Turning to `O=[N+]([O-])c1ccc2c(ccc3[se]c4ccccc4[n+]32)c1.[O-][Cl+3]([O-])([O-])[O-]` [Il, 3-Nitrobenzoselenazolo(3,2-a)quinolinium Perchlorate], the IC50 with KB cells amounted to 100 µg/mL.

As to `COc1cc2c(ccc3c4cc(OC)c(OC)cc4c[n+](C)c23)cc1O` [fagaronine], the antitumor activity entry in the series with L1210 murine leukemia and with P388 murine leukemia was “potent antitumor activity” in each case. Also, the “inhibition of DNA synthesis” value in the series with DNA synthesis is “inhibit DNA synthesis”.

Turning to `COc1cc2c[n+](C)c3c4cc5c(cc4ccc3c2cc1OC)OCO5` [nitidine], the antitumor activity entry with L1210 murine leukemia and with P388 murine leukemia was “potent antitumor activity” throughout. Besides, the “inhibition of DNA synthesis” value in the series on DNA synthesis is listed as “inhibit DNA synthesis”.
